Experimental data from patent US12594267B2, “Capsid inhibitors for the treatment of HIV” (Gilead Sciences, Inc., priority 2018, dated 2026).
Like-named read-outs stand apart in the source and are kept apart here.

Assays:
Type in all cases: cell-based, HIV-1
WT HXB2D = test: Cytopathic antiviral assay in MT-2 cells, wild type HXB2D; conditions: Human immunodeficiency virus 1, MT2, read-out: WT HXB2D EC50, MT-2 cells, mean ± s.d. of three experiments in triplicate
Description: (§1) The antiviral activity of the compound of Formula (a) was tested against a panel of known HIV-1 mutants resistant to HIV PIs (ATV and DRV), NRTIs (TFV and FTC), NNRTIs (RPV and EFV) or INSTIs (RAL, EVG and DTG) using a cytopathic antiviral assay in MT-2 cells. The compound of Formula (Ia) was fully active against all tested mutants resistant to PIs (Table 11), NRTIs (Table 12), NNRTIs (Table 13) or INSTIs (Table 14).

WT LAI = test: microbe, parasite or virus in culture; conditions: Human immunodeficiency virus 1, MT2, read-out: WT LAI EC50
Description: (§2) The antiviral activity of the compound of Formula (a) was tested against a panel of known HIV-1 mutants resistant to HIV PIs (ATV and DRV), NRTIs (TFV and FTC), NNRTIs (RPV and EFV) or INSTIs (RAL, EVG and DTG) using a cytopathic antiviral assay in MT-2 cells.

PI-resistant viruses = test: Cytopathic antiviral assay in MT-2 cells, PI-resistant viruses; conditions: Mutant/WT (HXB2D) EC50 ratio, mean ± s.d. of three experiments
Description: as §1

NRTI-resistant viruses = conditions: Mutant/WT (LAI) EC50 ratio, MT-2 cells, mean ± s.d. of three experiments
Description: as §2

NNRTI-resistant viruses = test: Cytopathic antiviral assay in MT-2 cells, NNRTI-resistant viruses; conditions: Mutant/WT (HXB2D) EC50 ratio, mean ± s.d. of three experiments
Description: as §1

INSTI-resistant viruses = test: Cytopathic antiviral assay in MT-2 cells, INSTI-resistant viruses; conditions: Mutant/WT (HXB2D) EC50 ratio, mean ± s.d. of three experiments
Description: as §1

COC(=O)N[C@H](C(=O)N[C@@H](Cc1ccccc1)[C@@H](O)CN(Cc1ccc(-c2ccccn2)cc1)NC(=O)[C@@H](NC(=O)OC)C(C)(C)C)C(C)(C)C [ATV, atazanavir]
EC50 (WT HXB2D; INSTI-resistance panel (Table 14)): 3.7 ± 1.07 nM
EC50 (WT HXB2D; NNRTI-resistance panel (Table 13)): 4.6 ± 1.48 nM
EC50 (WT HXB2D; PI-resistance panel (Table 11)): 4.18 ± 0.46 nM
EC50 (WT LAI): 4.78 ± 1.26 nM
EC50 Fold-Change (PI-resistant viruses; G48V/V82A/L90M): 32.5 ± 11.9
EC50 Fold-Change (PI-resistant viruses; G48V/V82S): 15.4 ± 3.1
EC50 Fold-Change (PI-resistant viruses; I50V): 3.5 ± 0.4
EC50 Fold-Change (PI-resistant viruses; I84V/L90M): 33.1 ± 7.8
EC50 Fold-Change (NRTI-resistant viruses; 6TAMs): 0.5 ± 0.2
EC50 Fold-Change (NRTI-resistant viruses; K65R): 0.9 ± 0.3
EC50 Fold-Change (NRTI-resistant viruses; M184V): 0.6 ± 0.2
EC50 Fold-Change (NNRTI-resistant viruses; K103N): 0.6 ± 0.3
EC50 Fold-Change (NNRTI-resistant viruses; K103N/Y181C): 0.6 ± 0.3
EC50 Fold-Change (NNRTI-resistant viruses; L100I/K103N): 0.6 ± 0.3
EC50 Fold-Change (NNRTI-resistant viruses; Y181C): 1.8 ± 1.0
EC50 Fold-Change (NNRTI-resistant viruses; Y188L): 0.6 ± 0.3
EC50 Fold-Change (INSTI-resistant viruses; E92Q/N155H): 1.0 ± 0.4
EC50 Fold-Change (INSTI-resistant viruses; E138K/Q148K): 0.8 ± 0.3
EC50 Fold-Change (INSTI-resistant viruses; G140S/Q148R): 1.1 ± 0.5
EC50 Fold-Change (INSTI-resistant viruses; N155H/Q148R): 0.9 ± 0.4
EC50 Fold-Change (INSTI-resistant viruses; R263K/M50I): 1.1 ± 0.6
EC50 Fold-Change (INSTI-resistant viruses; Y143R): 0.8 ± 0.2
